Experimental findings from US8883771B2, “Bivalent inhibitors of IAP proteins and therapeutic methods using the same” (The Regents of the University of Michigan, priority 2012, dated 2014) are described below.

One assay concerns MDA-MB-231 xenograft. Briefly: Antitumor activity in the MDA-MB-231 xenograft model in nude mice. The assay is classed as in vivo. The following applies: 3 mg/kg, weekly dose for 4 weeks (qwk×4, iv), start at average tumor volume 80 mm^3. On the procedure:
Treatments started when the tumors reached an average volume of 80 mm^3 Example 24 was given intravenously, weekly dose for 4 weeks (qwk×4, iv) at 10 mg/kg. Example 2 was given weekly dose for 4 weeks (qwk×4, iv) at 3 mg/kg. Control treatment was given vehicle control. Each group has 8-10 mice and each mouse has one tumor.

The target of assay [1] is XIAP linker-BIR2-BIR3 (residues 120-356) (Homo sapiens (Human), UniProt P98170). The experiment in a line: Fluorescence polarization (FP) based competitive binding assay, XIAP linker-BIR2-BIR3. The conditions noted are these: FP competitive assay, Smac-1F probe; read-out: Binding Affinities IC50 (nM) XIAP Protein. On the procedure:
(§1) For cIAP-1 BIR3 and cIAP-2 BIR3 assays, a fluorescently labeled Smac mimetic (Smac-2F) was used as the fluorescent probe. The Kd values of Smac-2F to cIAP-1 BIR3 and cIAP-2 BIR3 were determined by monitoring the total fluorescence polarization of mixtures composed with the fluorescent probe at a fixed concentration and proteins with increasing concentrations up to full saturation. Fluorescence polarization values were measured using the Infinite M-1000 plate reader (Tecan U.S., Research Triangle Park, N.C.) in Microfluor 2 96-well, black, round-bottom plates (Thermo Scientific). To each well, 1 nM of SMAC-2F and increasing concentrations of protein were added to a final volume of 125 μl in the assay buffer (100 mM potassium phosphate, pH 7.5, 100 μg/ml bovine γ-globulin, 0.02% sodium azide, Invitrogen, with 4% DMSO). Plates were incubated at room temperature for 1-2 hours and mixed with gentle shaking to assure equilibrium. […] Equilibrium dissociation constants (Kd) were then calculated by fitting the sigmoidal dose-dependent FP increases as a function of protein concentrations using Graphpad Prism 5.0 software (Graphpad Software, San Diego, Calif.).
(§2) Mixtures of 5 μl of the tested compounds in DMSO and 120 μl of preincubated protein/tracer complex in the assay buffer (100 mM potassium phosphate, pH 7.5, 100 μg/ml bovine γ-globulin, 0.02% sodium azide, Invitrogen) were added into assay plates and incubated at room temperature for 2 hours with gentle shaking. Final concentrations of proteins and probes were 3 nM and 1 nM, 5 nM and 1 nM for assays for cIAP-1 BIR3 and cIAP-2 BIR3, respectively. […] FP values were measured as described above. IC50 values were determined by nonlinear regression fitting of the competition curves. The Ki values of competitive inhibitors were calculated using the derived equation described previously, based upon the measured IC50 values, the Kd values of the probe to different proteins, and the concentrations of the proteins and probes in the competitive assays.
The FP-based assay for XIAP linker-BIR2-BIR3 protein was performed with the same procedures. In this assay, a bivalent fluorescently tagged peptidic Smac mimetic (Smac-1F) was used as the fluorescent probe whose Kd value to XIAP linker-BIR2-BIR3 was determined similarly through the saturation experiments. 0.01% of Triton X-100 was added in the assay buffer to achieve stable fluorescence and polarization value of the dimeric fluorescent probe. Final protein and probe concentrations utilized in the competitive assay were 3 nM and 1 nM, respectively.
For orientation: Fluorescence polarisation rises when a labelled molecule tumbles more slowly, as on binding a larger partner.

The target of assay [2] is cIAP1-BIR3 (residues 253-363) (Homo sapiens (Human), UniProt Q13490). Briefly: Fluorescence polarization (FP) based competitive binding assay, cIAP1-BIR3. The following applies: Smac-2F probe, read-out: Binding Affinities IC50 (nM) cIAP1 Protein. The method, then:
as §1, §2

Assay [3] has as its target cIAP-2 BIR3 (residues 238-349) (Homo sapiens (Human), UniProt Q13489). Briefly: Fluorescence polarization (FP) based competitive binding assay, cIAP-2 BIR3. The following applies: FP competitive assay, Smac-2F probe; read-out: Binding Affinities IC50 (nM) cIAP2 Protein. On the procedure: as §1, §2
In assay [4] the test system is MDA-MB-231 breast cancer cell line. Briefly: Inhibition of cell growth in MDA-MB-231 breast cancer cell line. The assay is classed as cell-based, human. The conditions noted are these: Homo sapiens.
Assay [5] relates to SK-OV-3 ovarian cancer cell line. Briefly: Inhibition of cell growth in SK-OV-3 ovarian cancer cell line. In kind it is cell-based, human. The conditions noted are these: Homo sapiens.
Where [6] appears, read: MDA-MB-231 breast cancer cell line.
Setting [7] is: SK-OV-3 ovarian cancer cell line.
[8] abbreviates: MDA-MB-231, MDA-MB-231 breast cancer cell line.
The mark [9] stands for this setting: SK-OV-3, SK-OV-3 ovarian cancer cell line.

Bounds are passed on as bounds.

Take `CN[C@@H](C)C(=O)N[C@H]1CN(C(=O)Nc2ccc(NC(=O)N3CC[C@H]4CC[C@@H](C(=O)NC(c5ccccc5)c5ccccc5)N4C(=O)[C@@H](NC(=O)[C@H](C)NC)C3)cc2)CC[C@H]2CCC(C(=O)NC(c3ccccc3)c3ccccc3)N2C1=O` (stereo partly shown) [Example 2]: the “Antitumor activity (mean tumor volume)” value with MDA-MB-231 xenograft is “Tumor regression was achieved”.
For the compound `CN[C@@H](C)C(=O)N[C@H]1CN(S(=O)(=O)CCC/C=C/CCCS(=O)(=O)N2CC[C@H]3CC[C@@H](C(=O)NC(c4ccccc4)c4ccccc4)N3C(=O)[C@@H](NC(=O)[C@H](C)NC)C2)CC[C@H]2CCC(C(=O)NC(c3ccccc3)c3ccccc3)N2C1=O` (stereo partly shown) [Example 8], the IC50 in assay [1] is < 10 nM; in assay [2], < 100 nM; in assay [3], < 100 nM; in assay [4] (setting [6]), < 1000 nM; in assay [5] (setting [7]), < 1000 nM.
As to `CN[C@@H](C)C(=O)N[C@H]1CN(S(=O)(=O)CCCCCCS(=O)(=O)N2CC[C@H]3CC[C@@H](C(=O)NC(c4ccccc4)c4ccccc4)N3C(=O)[C@@H](NC(=O)[C@H](C)NC)C2)CC[C@H]2CCC(C(=O)NC(c3ccccc3)c3ccccc3)N2C1=O` (stereo partly shown) [Example 9], the half-maximal inhibitory concentration (IC50) was < 10 nM in assay [1]; < 100 nM in assay [2]; < 100 nM in assay [3]; < 1000 nM in assay [4] (setting [6]); < 1000 nM in assay [5] (setting [7]).
For the compound `CN[C@@H](C)C(=O)N[C@H]1CN(S(=O)(=O)CCCCCCCCS(=O)(=O)N2CC[C@H]3CC[C@@H](C(=O)NC(c4ccccc4)c4ccccc4)N3C(=O)[C@@H](NC(=O)[C@H](C)NC)C2)CC[C@H]2CCC(C(=O)NC(c3ccccc3)c3ccccc3)N2C1=O` (stereo partly shown) [Example 10], the IC50 in assay [1] is < 10 nM; in assay [2], < 100 nM; in assay [3], < 100 nM; in assay [4] (setting [6]) it was < 1000 nM; in assay [5] (setting [7]) it was < 1000 nM.
Consider `CN[C@@H](C)C(=O)N[C@H]1CN(C(=O)Nc2ccc(Cc3ccc(NC(=O)N4CC[C@H]5CC[C@@H](C(=O)N[C@@H]6CCCc7ccccc76)N5C(=O)[C@@H](NC(=O)[C@H](C)NC)C4)cc3)cc2)CC[C@H]2CCC(C(=O)N[C@@H]3CCCc4ccccc43)N2C1=O` (stereo partly shown) [Example 12], for which the IC50 in assay [1] is < 10 nM; in assay [2], < 100 nM; in assay [3], < 100 nM; in assay [4] (setting [8]), < 100 nM; in assay [5] (setting [9]) it was < 100 nM.
Regarding `CN[C@@H](C)C(=O)N[C@H]1CN(C(=O)NCCCCCCNC(=O)N2CC[C@H]3CC[C@@H](C(=O)NC(c4ccccc4)c4ccccc4)N3C(=O)[C@@H](NC(=O)[C@H](C)NC)C2)CC[C@H]2CCC(C(=O)NC(c3ccccc3)c3ccccc3)N2C1=O` (stereo partly shown) [Example 13], the IC50 in assay [1] is < 30 nM; in assay [2], < 300 nM; in assay [3] it was < 300 nM; in assay [4] (setting [8]) it was < 100 nM; in assay [5] (setting [9]) it was < 100 nM.
As to `CN[C@@H](C)C(=O)N[C@H]1CN(C(=O)Nc2ccc(NC(=O)N3CC[C@H]4CC[C@@H](C(=O)N[C@H]5C[C@@H]5c5ccc(F)cc5)N4C(=O)[C@@H](NC(=O)[C@H](C)NC)C3)cc2)CC[C@H]2CC[C@@H](C(=O)N[C@H]3C[C@@H]3c3ccc(F)cc3)N2C1=O` [Example 29], the half-inhibitory concentration (IC50) in assay [1] is < 1000 nM; in assay [2], < 1000 nM; in assay [3], < 1000 nM; in assay [4] (setting [8]), < 5000 nM; in assay [5] (setting [9]), < 5000 nM.
For the compound `CN[C@@H](C)C(=O)N[C@H]1CN(C(=O)Nc2ccc(NC(=O)N3CC[C@H]4CC[C@@H](C(=O)N[C@@H]5CCC[C@H]5c5ccccc5)N4C(=O)[C@@H](NC(=O)[C@H](C)NC)C3)cc2)CC[C@H]2CC[C@@H](C(=O)N[C@@H]3CCC[C@H]3c3ccccc3)N2C1=O` [Example 32], the IC50 in assay [1] was < 3000 nM; in assay [2] it was < 3000 nM; in assay [3], < 3000 nM; in assay [4] (setting [8]), < 1000 nM; in assay [5] (setting [9]), < 1000 nM.
In the case of `CN[C@@H](C)C(=O)N[C@H]1CN(C(=O)Nc2ccc(NC(=O)N3CC[C@H]4CC[C@@H](C(=O)N[C@H]5CCC[C@@H]5c5ccccc5)N4C(=O)[C@@H](NC(=O)[C@H](C)NC)C3)cc2)CC[C@H]2CC[C@@H](C(=O)N[C@H]3CCC[C@@H]3c3ccccc3)N2C1=O` [Example 33], the IC50 in assay [1] is < 3000 nM; in assay [2], < 3000 nM; in assay [3], < 3000 nM; in assay [4] (setting [8]), < 1000 nM; in assay [5] (setting [9]), < 1000 nM.
With `CN[C@@H](C)C(=O)N[C@H]1CN(C(=O)Nc2ccc(NC(=O)N3CC[C@H]4CC[C@@H](C(=O)N[C@@H]5CCC[C@@H]5c5ccccc5)N4C(=O)[C@@H](NC(=O)[C@H](C)NC)C3)cc2)CC[C@H]2CC[C@@H](C(=O)N[C@@H]3CCC[C@@H]3c3ccccc3)N2C1=O` [Example 34], the IC50 was < 1000 nM in assay [1]; < 1000 nM in assay [2]; < 1000 nM in assay [3]; < 100 nM in assay [4] (setting [8]); < 100 nM in assay [5] (setting [9]).

As a reminder, the IC50 is the concentration that inhibits the measured activity by half.
